Consider 8 compounds from patent US4169157A, “Therapeutic preparations for peptic ulcers comprising aliphatic ketone derivative” (Eisai Co., Ltd., priority 1977, dated 1979).

Test [1] concerns cold and restraint stress ulcer. Briefly: Effect on the cold and restraint stress ulcer. The format is in vivo, SD strain female rats. The note with it: 200 mg/kg oral; for inhibition in vivo at 200 mg/kg: 2 h, read-out: Inhibition rate to the development of the cold and restraint stress ulcer; for Inhibition rate to the development of the ulcer (in words): compared with control compound A (Gefarnate). On the procedure: Preventive effect of the test compounds on the development of the cold and restraint stress ulcer was estimated according to Levine's method [Proc. Soc. Exptl. Biol. Med., 124, 1221 (1967)], using SD strain female rats weighing about 170 g, and being 8-10 weeks old, as test animals.
All test compounds were suspended in 5% gum arabic solution and one drop of Tween 80, and the suspension was orally administered to rat. A dose amounted to 200 mg/kg, and the volume of the administrative dose was controlled to 0.5 ml/100 g B. W. As a blank test, 5% gum arabic solution was administered.
The administration of the test compounds and the blank test were carried out 30 minutes before adopting the cold and restraint stress.
The effect of the test compounds was estimated by finding the value (ulcer index) of the total length of the erosion observed in the glandular portion of the test animals two hours after the cold and restraint stress, and calculating the effect of the administration of said compounds as the inhibition rate of the development of the ulcer from the value. [formula]

In the next test the test system is indomethacin ulcer. Briefly: Effect on Indomethacin ulcer. The format is in vivo, SD strain female rats. The note with it: for inhibition in vivo at 100 mg/kg: 4 h, read-out: Inhibition rate on the development of indomethacin ulcer. On the procedure:
The inhibitory effects of the test compounds on the development of the ulcer due to the administration of indomethacin were estimated using SD strain female rats weighing about 200 g as the test animals.
The methods for administration and estimation of the effect of the test compounds are carried out according to the procedure in pharmacological experiment 2.
The dose of the test compound amounted to 100 mg/kg. The indomethacin was orally administered in the dose of 20 mg/kg. The effect was estimated four hours after the administration of indomethacin.

The test system of the next test is histamine ulcer. Briefly: Effect on the Histamine ulcer. The test is classed as in vivo, SD strain male rats. The note with it: 100 mg/kg oral; for inhibition in vivo at 100 mg/kg: read-out: Inhibition rate to the development of the histamine ulcer. On the procedure: According to the Okabe et al. method [[…] 26 (1) 89-93 (1975)], the inhibitory effects of the test compounds on the development of ulcer due to the administration of histamine were estimated using SD strain male rats weighing about 350 g as the test animals.
The methods for administration and estimation of the effect of the test compounds are carried out according to the procedure in pharmacological experiment 1.
A dose of the test compounds amounted to 100 mg/kg.
The histamine was administered intraperitoneally to the test animal in an amount of 200 mg/kg as the hydrochloride.
The effect was estimated 4 hours after the administration of the histamine.

The subject of another test is subacute aspirin ulcer. Description: Effect on subacute aspirin ulcer. The test is classed as in vivo, SD strain male rats. The note with it: for inhibition in vivo at 200 mg/kg: 144 h, read-out: Inhibition rate to the development of the subacute aspirin ulcer; for Inhibitory effect on subacute aspirin ulcer (in words): 200 mg/kg/day for five days. On the procedure: Aspirin in amount of 200 mg/kg/day was orally administered to SD strain male rats (body weight of about 250 g, nine weeks old) after abstinence from the food for 24 hours. The rats were fed for one hour, after one hour from said administration, and again abstained from the food. The administration of aspirin was continued for five days in the same schedule as mentioned above. The effect was estimated on the sixth day.
All the test compounds were emulsified with 5% gum arabic solution and one drop of Tween 80. The emulsions were administered continuously for five days, together with aspirin to rat. The dose amounted to 200 mg/kg/day, and the volume of the dose was controlled to 0.5 ml/100 g B. W. The blank test was similarly effected as pharmacological experiment 1.
The effect of the test compound was estimated by finding the value (ulcer index) of the total lengths of erosions developed in the glandular portion of the test animal with respect to the test compounds group and the blank test group, respectively, and calculating from said value the effect of the administration of the test compounds as the inhibition rate.

A further test has as its system peptic ulcers. Briefly: Therapeutic effect on peptic ulcers (overall result of the pharmacological experiments). The test is classed as in vivo, SD strain rats. The note with it: from the results of the above-described pharmacological experiments.
[2] abbreviates: 30 minutes before stress, ulcer index two hours after stress, rat.
[3] abbreviates: indomethacin 20 mg/kg oral, four hours after indomethacin, rat.
[4] abbreviates: histamine 200 mg/kg intraperitoneally, 4 hours after histamine, rat.
Where [5] appears, read: 200 mg/kg/day for five days together with aspirin 200 mg/kg/day oral, estimated on sixth day, rat.

Entries after “also recorded” stand apart in the source; their conditions may differ.

Take `CC(C)=CCCC(C)=CCCC(C)=CCCC(=O)OCC=C(C)CCC=C(C)C` [control compound A, reference compound]: the values for the inhibition in vivo at 200 mg/kg (in test [1] (setting [2]); with subacute aspirin ulcer (setting [5])) were 47.2% and 21%, respectively. Besides, the inhibition in vivo at 100 mg/kg with indomethacin ulcer (setting [3]) was 45%; in the test with histamine ulcer (setting [4]) it was 15.4%. For the same compound, in the test on histamine ulcer, the “Effect on the histamine ulcer of rat (in words)” value (from here on “Effect on the histamine ulcer”) is reported as “no appreciable effect”.
On to `CC(=O)CCC=C(C)CCC=C(C)CCC=C(C)CCC=C(C)C` [subject compound B, 6,10,14,18-tetramethyl-5,9,13,17-nonadecatetraene-2-on], for which the “Inhibition rate to the development of the ulcer (in words)” value (shortened to “Inhibition rate … (in words)”) in test [1] is on record as “higher than that of the control compound A; also recorded: particularly the most effective compound”. The inhibition in vivo at 200 mg/kg was 75.7% in test [1] (setting [2]) and 73.2% in the test with subacute aspirin ulcer (setting [5]). Moreover, the “Inhibitory effect on the development of the indomethacin ulcer (in words)” value (from here on “Inhibitory effect on the development”) in the test on indomethacin ulcer (100 mg/kg) is recorded as “Particularly high inhibitory effect”. Moreover, the inhibition in vivo at 100 mg/kg in the test on indomethacin ulcer (setting [3]) was found to be 91.3%; in the test on histamine ulcer (setting [4]), 53.8%. In addition, in the test on histamine ulcer, the “Effect on the histamine ulcer” value is “more inhibitory effect than that of the control compound”. For the same compound, in the test on subacute aspirin ulcer, the “Inhibitory effect on subacute aspirin ulcer (in words)” value is “Inhibitory effect was shown”. Moreover, the “Therapeutic effect on the peptic ulcers (in words)” value (shortened to “Therapeutic effect”) in the test on peptic ulcers is “high therapeutic effect on the peptic ulcers”.
Turning to `CC(=O)CCC=C(C)CCCC(C)CCCC(C)CCCC(C)C` (stereo not shown) [subject compound D, 6,10,14,18-tetramethyl-5-nonadecaene-2-on], in test [1], the “Inhibition rate … (in words)” value is on record as “higher than that of the control compound A”. Moreover, the inhibition in vivo at 200 mg/kg in test [1] (setting [2]) was 72%; in the test with subacute aspirin ulcer (setting [5]), 61.8%. In addition, the inhibition in vivo at 100 mg/kg in the test with indomethacin ulcer (setting [3]) stood at 75.5%; in the test with histamine ulcer (setting [4]), 35.2%. The “Inhibitory effect on subacute aspirin ulcer (in words)” value in the test with subacute aspirin ulcer is listed as “Inhibitory effect was shown”. The “Therapeutic effect” value in the test on peptic ulcers is given as “high therapeutic effect on the peptic ulcers”.
For the compound `CC(=O)C(CC=C(C)CCC=C(C)CCC=C(C)CCC=C(C)C)C(C)=O` [subject compound G, 3-acetyl-6,10,14,18-tetramethyl-5,9,13,17-nonadecatetraene-2-on], the “Inhibition rate … (in words)” value in test [1] is given as “higher than that of the control compound A”. The inhibition in vivo at 200 mg/kg in test [1] (setting [2]) is 70.5%; in the test on subacute aspirin ulcer (setting [5]), 64.5%. Also, the inhibition in vivo at 100 mg/kg in the test with indomethacin ulcer (setting [3]) was 64.9%; with histamine ulcer (setting [4]), 40.8%. The “Therapeutic effect” value in the test on peptic ulcers is “high therapeutic effect on the peptic ulcers”.
For “6,10,14-trimethyl-5,9,13-octadecatriene-2-on [subject compound A]”, in test [1] (setting [2]), the “Inhibition rate to the development of the cold and restraint stress ulcer” value turned out to be 71.4%. Further, the “Inhibition rate … (in words)” value in test [1] was “higher than that of the control compound A”. The “Inhibition rate on the development of indomethacin ulcer” value with indomethacin ulcer (100 mg/kg, indomethacin 20 mg/kg oral, four hours after indomethacin, rat) is 75.4%. For the same compound, in the test with histamine ulcer, the “Effect on the histamine ulcer” value is given as “more inhibitory effect than that of the control compound”. For the same compound, the “Inhibition rate to the development of the histamine ulcer” value in the test with histamine ulcer (setting [4]) was found to be 50.4%. Besides, the “Inhibition rate to the development of the subacute aspirin ulcer” value in the test with subacute aspirin ulcer (setting [5]) was 56.7%. In addition, the “Therapeutic effect” value with peptic ulcers is recorded as “high therapeutic effect on the peptic ulcers”.
Regarding `CC(=O)CCCC(C)CCCC(C)CCCC(C)CCCC(C)C` (stereo not shown) [subject compound E, 6,10,14,18-tetramethyl-nonadecane-2-on], the “Inhibition rate … (in words)” value in test [1] is given as “higher than that of the control compound A”. Besides, the inhibition in vivo at 200 mg/kg was 67.8% in test [1] (setting [2]) and 48.5% with subacute aspirin ulcer (setting [5]). Besides, the inhibition in vivo at 100 mg/kg amounted to 71.1% in the test on indomethacin ulcer (setting [3]) and 22.4% in the test with histamine ulcer (setting [4]). For the same compound, the “Therapeutic effect” value in the test with peptic ulcers is “high therapeutic effect on the peptic ulcers”.
For the compound `CCCC(=O)CCC=C(C)CCC=C(C)CCC=C(C)CCC=C(C)C` [subject compound F, 8,12,16,20-tetramethyl-7,11,15,19-heneicosatetraene-4-on], the “Inhibition rate … (in words)” value in test [1] is given as “higher than that of the control compound A”. Moreover, the inhibition in vivo at 200 mg/kg in test [1] (setting [2]) was 69.5%; in the test with subacute aspirin ulcer (setting [5]) it was 52.7%. Also, the “Inhibitory effect on the development” value in the test with indomethacin ulcer (100 mg/kg) is reported as “Particularly high inhibitory effect”. The results for the inhibition in vivo at 100 mg/kg in the test with indomethacin ulcer (setting [3]) and in the test on histamine ulcer (setting [4]) were 88.5% and 49%, respectively. In addition, in the test with histamine ulcer, the “Effect on the histamine ulcer” value is reported as “more inhibitory effect than that of the control compound”. Besides, the “Therapeutic effect” value in the test with peptic ulcers is reported as “high therapeutic effect on the peptic ulcers”.
Regarding `CC(C)=CCCC(C)=CCCC(C)=CCCC(C)=CCCC(=O)C(C)C` [subject compound C, 2,7,11,15,19-pentamethyl-6,10,14,18-eicosatetraene-3-on], the “Inhibition rate … (in words)” value in test [1] is given as “higher than that of the control compound A”. The inhibition in vivo at 200 mg/kg in test [1] (setting [2]) was 67.1%; with subacute aspirin ulcer (setting [5]) it was 50.9%. Moreover, the “Inhibitory effect on the development” value in the test on indomethacin ulcer (100 mg/kg) is “Particularly high inhibitory effect”. In addition, the inhibition in vivo at 100 mg/kg in the test on indomethacin ulcer (setting [3]) stood at 86.7%; in the test with histamine ulcer (setting [4]) it was 44.7%. Further, the “Therapeutic effect” value in the test with peptic ulcers is “high therapeutic effect on the peptic ulcers”.
